Experimental findings from patent US7326772B2, “Peptide for assaying hERG channel binding” (Penta Biotech, Inc., priority 2005, dated 2008) are described below.

The target of one data set is T1, hERG channel (Homo sapiens, UniProt Q12809).
T1 construct: host or cells: HEK-293 (hERG/HEK-293 cell line, clone 16), membrane preparation
As to the kind of experiment: Ki (average). From the text: Table printed on a drawing sheet, FIG. 4
Title: Ki of BeKm-1 Analogs in Two Independent FlashBlue Competition Assays.
Head of the field: Ki (average)
First copying reader's note: The table is panel A of FIG. 4; panel B is a plot and is left out.

The target in data set [1] is T2, hERG K+ channel membranes (hERG/HEK-293 cell line, clone 16) (Homo sapiens, UniProt Q12809).
T2 construct: host or cells: HEK-293 (hERG/HEK-293 cell line, clone 16), membrane preparation
T2 sequence (Q12809 whole entry): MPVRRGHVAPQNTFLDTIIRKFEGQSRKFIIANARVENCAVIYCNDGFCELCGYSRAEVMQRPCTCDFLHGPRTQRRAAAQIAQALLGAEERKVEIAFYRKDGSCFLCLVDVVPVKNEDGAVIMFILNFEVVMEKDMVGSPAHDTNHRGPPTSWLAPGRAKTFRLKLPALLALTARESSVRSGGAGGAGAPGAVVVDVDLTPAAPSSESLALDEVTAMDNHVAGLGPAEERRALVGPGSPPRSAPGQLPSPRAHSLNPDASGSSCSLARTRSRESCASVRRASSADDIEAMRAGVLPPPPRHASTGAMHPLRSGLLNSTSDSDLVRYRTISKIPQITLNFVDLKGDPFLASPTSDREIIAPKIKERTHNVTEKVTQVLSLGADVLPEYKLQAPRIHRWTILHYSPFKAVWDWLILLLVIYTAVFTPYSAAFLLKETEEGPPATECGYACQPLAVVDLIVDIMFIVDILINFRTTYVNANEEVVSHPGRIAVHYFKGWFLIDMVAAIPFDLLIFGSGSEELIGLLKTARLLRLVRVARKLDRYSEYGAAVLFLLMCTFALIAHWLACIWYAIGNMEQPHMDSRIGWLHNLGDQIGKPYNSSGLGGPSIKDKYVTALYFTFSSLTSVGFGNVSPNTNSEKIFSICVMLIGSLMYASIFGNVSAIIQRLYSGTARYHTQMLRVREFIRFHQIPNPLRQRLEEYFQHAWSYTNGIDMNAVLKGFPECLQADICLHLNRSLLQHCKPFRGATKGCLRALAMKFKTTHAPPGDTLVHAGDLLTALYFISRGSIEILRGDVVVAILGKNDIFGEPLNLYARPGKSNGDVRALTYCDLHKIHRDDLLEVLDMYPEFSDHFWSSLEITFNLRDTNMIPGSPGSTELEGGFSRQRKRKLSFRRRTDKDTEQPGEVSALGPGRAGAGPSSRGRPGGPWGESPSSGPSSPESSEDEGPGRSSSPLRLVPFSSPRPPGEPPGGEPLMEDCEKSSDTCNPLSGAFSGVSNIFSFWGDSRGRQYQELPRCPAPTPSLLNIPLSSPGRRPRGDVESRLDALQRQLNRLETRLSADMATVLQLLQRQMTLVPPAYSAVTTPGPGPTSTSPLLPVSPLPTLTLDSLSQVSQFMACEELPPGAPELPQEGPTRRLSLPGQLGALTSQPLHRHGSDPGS
Description: homogeneous [125I]-BeKm-1 FlashBlue competition assay. The data set is classed as binding. Particulars: [125I]-BeKm-1 at 0.17 nM; acetate and TFA salts; one hour at room temperature. How it is done: Acetate and TFA salts of (SeC)^7-BeKm-1 were tested in homogeneous [^125I]-BeKm-1 competition assays using FlashBlue GPCR beads and hERG K^+ channel membranes derived from Perkin Elmer's hERG/HEK-293 cell line (clone 16). […] Assays were run in buffer composed of 20 mM Hepes/Tris pH 7.2, 100 μM KCl, 0.5% BSA. 1.25 μg hERG K^+ channel membranes and 62.5 μg FlashBlue GPCR beads were added to each well of a 384-well white Optiplate. The total assay volume for each well was 40 μl. Plates were spun briefly after a one hour incubation at room temperature prior to signal detection with a TopCount apparatus.

Where a name gives a salt, the structure may show the parent alone. Bridge positions count the residues as written; N and C are the ends. Peptide text beside a SMILES is read from it.

T1 sequence (Q12809 whole entry, looked up): as the sequence (Q12809 whole entry) above

One may read the Ki as the dissociation constant of the complex between target and ligand, obtained from inhibition or displacement. Read a high Ki as weaker binding. `CC[C@H](C)[C@H](NC(=O)[C@H](CC(=O)O)NC(=O)[C@@H](NC(=O)[C@@H]1CCCN1C(=O)[C@@H](N)CCCNC(=N)N)[C@@H](C)O)C(=O)N[C@@H](CCCCN)C(=O)N[C@H]1CSSC[C@@H]2NC(=O)[C@H](CCCNC(=N)N)NC(=O)CNC(=O)[C@H](CC(N)=O)NC(=O)[C@H]([C@@H](C)O)NC(=O)[C@H](CCCCN)NC(=O)CNC(=O)[C@H](Cc3ccccc3)NC(=O)[C@H](CCCNC(=N)N)NC(=O)[C@H](CO)NC(=O)[C@H](CCCCN)NC(=O)[C@@H]3CSSC[C@@H](C(=O)N[C@@H](Cc4ccccc4)C(=O)O)NC(=O)[C@H](CC(=O)O)NC(=O)[C@H](CSSC[C@H](NC(=O)[C@H](CCC(N)=O)NC(=O)[C@H](Cc4ccc(O)cc4)NC(=O)[C@H](CO)NC(=O)[C@H](CCC(=O)O)NC(=O)[C@H](CO)NC1=O)C(=O)N[C@@H](Cc1ccccc1)C(=O)N1CCC[C@H]1C(=O)N[C@@H](C(C)C)C(=O)N3)NC(=O)[C@H](Cc1ccccc1)NC(=O)CNC(=O)[C@H](CC(N)=O)NC(=O)[C@H](C(C)C)NC2=O` [BeKm-1 TFA Salt] (H-RPTDIKCSESYQCFPVCKSRFGKTNGRCVNGFCDCF-OH; disulfide 7-28, 13-33, 17-35 (inferred)) registered a Ki on hERG channel of 0.35 nM.

Regarding “RPTDIKCSESYQCFPVCKSRFGKTNGRCVNGFCDCF [(SeC)^7-BeKm-1]”, the “affinity for the hERG channel (Ki, FIG. 4)” value in data set [1] was “comparable to that of native BeKm-1”.
